Laboratory results published in US20260191889A1, “TREHALOSE FOR TREATING HUNTINGTON'S DISEASE” (GLD Debt Acquisition 2025-1, priority 2022, published 2026).

Experiments:
[1] = test system: transgenic R6/2 mice (a disease model for Huntington's Disease); assay: Body weight of R6/2 mice after treatment with MT; format: in vivo, Mus musculus; details: MT 5 g/kg i.p. 5 times per week, average±standard error (±0.6), vehicle 16.5, wild-type 30.7
Experimental: Eleven male mice were treated with trehalose 5 g/kg (i.p. injection, 25 ml/kg, trehalose dose formulation concentration: 0.2 g/ml, with active trehalose corresponding to 5.252 g/kg of trehalose dihydrate), 5 times per week starting at 4 weeks of age. There were a total of 41 doses or doses stopped when mice were euthanized. Mice were euthanized at 8 weeks after first trehalose dose (12 weeks of age, n=8). n=3 mice/group were monitored until survival.
Body Weights—Body weights were monitored twice per week throughout the study for all animals. Pre-trehalose treatment onset baseline body weight was used to assign the animals to experimental groups. Terminal body weights were not registered from animals found dead or euthanized moribund.
MT was administered to mice i.p. 5 times per week (from Monday to Friday). Dose volume was 25 ml/kg. Dose was 5 g/kg. Pure trehalose dose formulation concentration was 0.2 g/ml. The last dose of animals euthanized at 8 weeks post infusion (age week 12) was 30 min prior to terminal sampling.
Body Weight—Comparisons between two groups used a two-way Mixed-effects model (Mixed Anova) with Geisser-Greenhouse correction (not assuming sphericity), followed by Fisher's LSD test between the two groups performed for each time point. Time, group and the interaction of Time×Group were fixed effects, and the individual subject was the random effect. […]

[2] = test system: neurofilament light chain (NfL) protein; assay: NfL concentration in blood serum of a subject with HD on weekly IV trehalose; format: in vivo, human; details: subject 02-001 (HD)
Experimental: This study consisted of a 2-week screening period, a 24-week open-label treatment period, and a 2-week safety follow-up period. Eligible subjects received substantially purified trehalose, administered as a once weekly IV infusion over 60 minutes±5 min for volumes≤600 mL or 90 minutes±5 min for volumes>600 mL. The total volume of the infusion was based on the weight of the subject and a dose of 0.75 g trehalose per kg of subject weight (g/kg). An additional 52 weeks of open-label trehalose treatment was planned for consenting subjects who were determined to be medically appropriate after their completion of the primary 24-week open-label treatment period.
Blood samples were obtained from subjects at the screening/baseline and during week 12 and week 24 for analyses. Blood serum was to determine the concentration of neurofilament light chain (NfL) protein in blood serum before and after initiation of trehalose treatment. Nfl concentrations in blood serum were measured using a Simoa® NF-light™ Advantage Kit by Quanterix. Higher concentrations of Nfl in subject blood serum is an indicator of clinical severity of HD, and lower concentrations compared to concentrations of the same subject indicates reversal or slowing of HD progression.

[3] = test system: Huntington's disease (HD); assay: Clinical scores of a subject with HD on weekly IV trehalose; format: in vivo, human
Experimental: This study consisted of a 2-week screening period, a 24-week open-label treatment period, and a 2-week safety follow-up period. Eligible subjects received substantially purified trehalose, administered as a once weekly IV infusion over 60 minutes±5 min for volumes≤600 mL or 90 minutes±5 min for volumes>600 mL. The total volume of the infusion was based on the weight of the subject and a dose of 0.75 g trehalose per kg of subject weight (g/kg). An additional 52 weeks of open-label trehalose treatment was planned for consenting subjects who were determined to be medically appropriate after their completion of the primary 24-week open-label treatment period. The primary study objectives were to determine safety and tolerability, and treatment responses associated with trehalose administered to subjects with HD. Safety and tolerability were determined by incidences of treatment-emergent adverse events (TEAEs) and serious adverse events ([…]), including clinically significant laboratory or diagnostic testing abnormalities. Laboratory samples, electrocardiograms (ECGs), and a rating on the Columbia Suicide Severity Rating Scale (C-SSRS) were obtained from the subject at the screening/baseline and during week 4, week 12, and week 24. Physical and neurological examinations of the subject were conducted at the screening/baseline and during week 12 and week 24. Vital signs and adverse events (AEs) of the subject were obtained at visits for study drug infusions and any unscheduled visits. In addition, AEs of the subject were obtained by scheduled or unscheduled telephone communications. Treatment responses were determined by assessments and comparative analyses of the following clinical scores that were obtained at the screening/baseline and follow-up study visits. All subjects completed the Patient Global Impression of Change (PGIC), the Clinical Global Impression of Change (CGIC), and the Clinical Global Impression of Severity (CGI-S) during week 4, week 8, week 12, week 18, and week 24. In addition, all participants completed the Patient's Global Impression of Severity (PGI-S), EQ Visual Analog Scale (EQ-VAS), and the CGI-S on day 1 and during week 4, week 8, week 12, week 18, and week 24. At the screening/baseline and during week 4, week 8, week 12, week 18, and week 24, subjects completed the UHDRS-TFC and the UHDRS-Independence Scale.

[4] = administered orally in humans; cleaved by gut trehalase; cited from earlier work
[5] = Safety profile from previous clinical trials of trehalose injection; format: in vivo, human; details: metabolized by trehalase enzymes into 2 glucose molecules
From the text: Risks of study participation also includes the risk of an infusion reaction or infusion site reactions. […] If needed, the use of an implanted venous access device (i.e., Mediport) or percutaneous indwelling catheter is permitted; however, if small caliber indwelling catheters in peripheral vessels is required, they should be for single use only. Additional risks include those risks related to venipuncture (e.g., hematoma, bleeding, pain, infection), which are low, and the risk of progression of disease for participants assigned to receive.

[6] = 3 months (12 weeks), 0.75 g/kg IV once weekly
[7] = after 3 months (12 weeks), 0.75 g/kg IV once weekly

## OC[C@H]1O[C@H](O[C@H]2O[C@H](CO)[C@@H](O)[C@H](O)[C@H]2O)[C@H](O)[C@@H](O)[C@@H]1O [MT, trehalose]
[1]
  average final body weight: 21.5 g
[2]; Screening / Day 0 (baseline before treatment)
  NfL Protein Concentration: 21.20 pg/mL
[2]; Week 12 / Day 84, 0.75 g/kg IV once weekly
  NfL Protein Concentration: 17.55 pg/mL
[2]; Week 24 / Day 168, 0.75 g/kg IV once weekly
  NfL Protein Concentration: 19.95 pg/mL
[3]; 3 months (12 weeks)
  CGI-S rating: A Little Better
  CGIC rating: A Little Better
[3]; [6]
  change in the UHDRS Functional Capacity: no change
  change in the UHDRS Independence Scale: no change
[3]; [7]
  Global impression of Health on a Visual Analog Scale: 90
  mini-mental status examination (MMSE) score: 27
[3]; baseline
  Global impression of Health on a Visual Analog Scale: 70
  mini-mental status examination (MMSE) score: 26
[4]
  trehalose reaching systemic circulation: < 0.5%
[5]
  active metabolites: no active metabolites
